Experiments:
[1] = Determination of the microsomal half-life / microsomal clearance; type: in vitro ADME; settings: pH 7.4; human liver microsomes, 0.5 μM test substance
Description: The metabolic stability of the compounds of the invention was determined in the following assay.
The test substances were incubated in a concentration of 0.5 μM as follows:
0.5 μM test substance are preincubated together with liver microsomes from different species (from rat, human or other species) (0.25 mg of microsomal protein/ml) in 0.05 M potassium phosphate buffer of pH 7.4 in microtiter plates at 37° C. for 5 min. The reaction is started by adding NADPH (1 mg/mL). After 0, 5, 10, 15, 20 and 30 min, 50 μl aliquots are removed, and the reaction is immediately stopped and cooled with the same volume of acetonitrile. The samples are frozen until analyzed. The remaining concentration of undegraded test substance is determined by MSMS. The half-life (T½) is determined from the gradient of the signal of test substance/unit time plot, it being possible to calculate the half-life of the test substance, assuming first order kinetics, from the decrease in the concentration of the compound with time. The microsomal clearance (mCl) is calculated from mCl=In2/T½/(content of microsomal protein in mg/ml)×1000 [ml/min/mg] (modified from references: Di, The Society for Biomolecular Screening, 2003, 453-462; Obach, DMD, 1999 vol. 27. N 11, 1350-1359).

[2] = target: human vasopressin V1a receptor (Homo sapiens, UniProt P37288); test: Vasopressin V1a receptor binding assay; settings: selectivity quotient, human V1a vs human V1b
Chain of human vasopressin V1a receptor (P37288 whole entry): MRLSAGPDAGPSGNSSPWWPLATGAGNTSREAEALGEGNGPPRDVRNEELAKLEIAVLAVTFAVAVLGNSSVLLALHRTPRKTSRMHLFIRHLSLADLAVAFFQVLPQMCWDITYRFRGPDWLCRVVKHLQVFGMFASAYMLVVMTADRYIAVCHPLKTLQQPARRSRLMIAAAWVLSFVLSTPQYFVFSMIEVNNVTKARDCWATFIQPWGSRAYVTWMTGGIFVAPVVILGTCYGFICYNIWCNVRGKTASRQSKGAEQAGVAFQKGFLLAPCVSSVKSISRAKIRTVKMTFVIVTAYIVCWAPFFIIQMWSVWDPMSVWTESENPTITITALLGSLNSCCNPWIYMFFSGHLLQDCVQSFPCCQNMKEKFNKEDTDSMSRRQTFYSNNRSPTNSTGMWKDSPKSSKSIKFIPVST

[3] = target: T1, human vasopressin V1b receptor (Homo sapiens, UniProt P47901); test: Vasopressin V1b receptor binding assay; settings: CHO-K1 membranes, 3H-AVP displacement
T1 construct: expressed in transfected cells; host or cells: CHO-K1 (cell line hV1b_3H2_CHO), membrane preparation
T1 sequence (P47901 1-424): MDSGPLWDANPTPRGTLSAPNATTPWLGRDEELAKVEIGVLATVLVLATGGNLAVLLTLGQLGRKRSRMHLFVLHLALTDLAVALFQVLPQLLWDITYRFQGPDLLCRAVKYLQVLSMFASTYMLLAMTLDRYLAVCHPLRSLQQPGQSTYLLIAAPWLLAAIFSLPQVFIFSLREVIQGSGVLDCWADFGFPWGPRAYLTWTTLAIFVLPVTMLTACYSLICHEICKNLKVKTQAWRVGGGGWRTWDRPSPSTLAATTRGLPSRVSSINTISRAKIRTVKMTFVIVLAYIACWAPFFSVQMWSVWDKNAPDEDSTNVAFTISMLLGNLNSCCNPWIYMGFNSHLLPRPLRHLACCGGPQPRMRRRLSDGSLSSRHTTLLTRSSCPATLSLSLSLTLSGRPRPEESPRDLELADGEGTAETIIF
Description: The substance concentration was further diluted 1:5 in the assay mixture (2% DMSO in the mixture).
The nonspecific binding was determined with […] (Bachem #H1780). All determinations were carried out as triplicate determinations.

microsomal CLint at 0.5 μM [1] [µL/min/mg] | Ki(h-V1a)/Ki(h-V1b) [2] | Ki [3] [nM] | SMILES
< 100 | +++ (>30) | < 3 | CCOc1ncccc1C1(CC(=O)N2CCC(N3CCN(CC)CC3)CC2)C(=O)N(S(=O)(=O)c2ccc(OC)cc2OC)c2ccc(C#N)cc21.O=C(O)C(F)(F)F (racemic) [Example 2, (±)-1-(2,4-Dimethoxyphenylsulfonyl)-3-(2-ethoxypyridin-3-yl)-3-{2-[4-(4-ethylpiperazin-1-yl)piperidin-1-yl]-2-oxoethyl}-2-oxo-2,3-dihydro-1H-indole-5-carbonitrile trifluoroacetic acid salt]
< 100 | +++ (>30) | < 3 | CCOc1ncccc1C1(CC(=O)N2CCC(N3CCN(C)CC3)CC2)C(=O)N(S(=O)(=O)c2ccc(OC)cc2OC)c2ccc(C#N)cc21.O=C(O)C(F)(F)F (racemic) [Example 6, (±)-1-(2,4-Dimethoxyphenylsulfonyl)-3-(2-ethoxypyridin-3-yl)-3-{2-[4-(4-methylpiperazin-1-yl)piperidin-1-yl]-2-oxoethyl}-2-oxo-2,3-dihydro-1H-indole-5-carbonitrile, trifluoroacetic acid salt]
100 to 200 | +++ (>30) | 3 to 30 | CCOc1ncccc1C1(CC(=O)N2CCC(N3CCN(CC)CC3)CC2)C(=O)N(S(=O)(=O)c2ccccc2OC)c2ccc(C#N)cc21.O=C(O)C(F)(F)F (racemic) [Example 4, (±)-3-(2-Ethoxypyridin-3-yl)-3-{2-[4-(4-ethylpiperazin-1-yl)piperidin-1-yl]-2-oxoethyl}-1-(2-methoxyphenylsulfonyl)-2-oxo-2,3-dihydro-1H-indole-5-carbonitrile, trifluoroacetic acid salt]
< 100 | +++ (>30) | < 3 | CCOc1ncccc1C1(CC(=O)N2CCN(C3CCN(C)CC3)CC2)C(=O)N(S(=O)(=O)c2ccc(OC)cc2OC)c2ccc(C#N)cc21.O=C(O)C(F)(F)F (racemic) [Example 9, (±)-1-(2,4-Dimethoxyphenylsulfonyl)-3-(2-ethoxypyridin-3-yl)-3-{2-[4-(1-methylpiperidin-4-yl)piperazin-1-yl]-2-oxoethyl}-2-oxo-2,3-dihydro-1H-indole-5-carbonitrile, trifluoroacetic acid salt]
< 100 | +++ (>30) | 3 to 30 | CCOc1ncccc1C1(CC(=O)N2CCC(N3CCN(CC)CC3)CC2)C(=O)N(S(=O)(=O)c2ccccc2)c2ccc(C#N)cc21.O=C(O)C(F)(F)F (racemic) [Example 3, (±)-1-Phenylsulfonyl-3-(2-ethoxypyridin-3-yl)-3-{2-[4-(4-ethylpiperazin-1-yl)piperidin-1-yl]-2-oxoethyl}-2-oxo-2,3-dihydro-1H-indole-5-carbonitrile, trifluoroacetic acid salt]
< 100 | +++ (>30) | 3 to 30 | CCOc1ncccc1C1(CC(=O)N2CCN(C3CCN(C)CC3)CC2)C(=O)N(S(=O)(=O)c2ccccc2OC)c2ccc(C#N)cc21.O=C(O)C(F)(F)F (racemic) [Example 8, (±)-3-(2-Ethoxypyridin-3-yl)-1-(2-methoxyphenylsulfonyl)-3-{2-[4-(1-methylpiperidin-4-yl)-piperazin-1-yl]-2-oxoethyl}-2-oxo-2,3-dihydro-1H-indole-5-carbonitrile, trifluoroacetic acid salt]
< 100 | +++ (>30) | < 3 | CCOc1ncccc1C1(CC(=O)N2CCN(C3CCN(CC)CC3)CC2)C(=O)N(S(=O)(=O)c2ccc(OC)cc2OC)c2ccc(C#N)cc21 (single isomer, unassigned; (-)) [Example 10B, (−)1-(2,4-Dimethoxyphenylsulfonyl)-3-(2-ethoxypyridin-3-yl)-3-{2-[4-(1-ethylpiperidin-4-yl)-piperazin-1-yl]-2-oxoethyl}-2-oxo-2,3-dihydro-1H-indole-5-carbonitrile]
100 to 200 | ++ (15-30) | 3 to 30 | CCOc1ncccc1C1(CC(=O)N2CCC(N3CCN(C)CC3)CC2)C(=O)N(S(=O)(=O)c2ccccc2OC)c2ccc(C#N)cc21.O=C(O)C(F)(F)F (racemic) [Example 5, (±)-3-(2-Ethoxypyridin-3-yl)-1-(2-methoxyphenylsulfonyl)-3-{2-[4-(4-methylpiperazin-1-yl)-piperidin-1-yl]-2-oxoethyl}-2-oxo-2,3-dihydro-1H-indole-5-carbonitrile, trifluoroacetic acid]
< 100 | ++ (15-30) | 3 to 30 | CCOc1ncccc1C1(CC(=O)N2CCC(N3CCN(C)CC3)CC2)C(=O)N(S(=O)(=O)c2ccccc2)c2ccc(C#N)cc21.O=C(O)C(F)(F)F (racemic) [Example 1, (±)-1-Phenylsulfonyl-3-(2-ethoxypyridin-3-yl)-3-{2-[4-(4-methylpiperazin-1-yl)piperidin-1-yl]-2-oxoethyl}-2-oxo-2,3-dihydro-1H-indole-5-carbonitrile, trifluoroacetic acid salt]
< 100 | +++ (>30) | 3 to 30 | CCOc1ncccc1C1(CC(=O)N2CCN(C3CCN(C)CC3)CC2)C(=O)N(S(=O)(=O)c2ccccc2)c2ccc(C#N)cc21.O=C(O)C(F)(F)F (racemic) [Example 7, (±)-1-Phenylsulfonyl-3-(2-ethoxypyridin-3-yl)-3-{2-[4-(1-methylpiperidin-4-yl)piperazin-1-yl]-2-oxoethyl}-2-oxo-2,3-dihydro-1H-indole-5-carbonitrile, trifluoroacetic acid salt]

Source: patent US9403796B2, “Amidomethyl-substituted oxindole derivatives and the use thereof for the treatment of vasopressin-dependent illnesses” (AbbVie Deutschland GmbH & Co. KG, priority 2007, dated 2016)
